Read-outs that look alike come from different tables or passages of the source.
What was measured:
human androgen receptor [1] = molecular target: T1, human androgen receptor (Homo sapiens, UniProt P10275); assay: cell-based; conditions: antiandrogenic activity, in the presence of 1 nM DHT; read-out: ant EC50
T1 construct: expressed in transfected cells; host or cells: CHO cells, cell line CHO-AR-pMMTV-LUC 1G12-A5-CA
T1 sequence (P10275 1-920): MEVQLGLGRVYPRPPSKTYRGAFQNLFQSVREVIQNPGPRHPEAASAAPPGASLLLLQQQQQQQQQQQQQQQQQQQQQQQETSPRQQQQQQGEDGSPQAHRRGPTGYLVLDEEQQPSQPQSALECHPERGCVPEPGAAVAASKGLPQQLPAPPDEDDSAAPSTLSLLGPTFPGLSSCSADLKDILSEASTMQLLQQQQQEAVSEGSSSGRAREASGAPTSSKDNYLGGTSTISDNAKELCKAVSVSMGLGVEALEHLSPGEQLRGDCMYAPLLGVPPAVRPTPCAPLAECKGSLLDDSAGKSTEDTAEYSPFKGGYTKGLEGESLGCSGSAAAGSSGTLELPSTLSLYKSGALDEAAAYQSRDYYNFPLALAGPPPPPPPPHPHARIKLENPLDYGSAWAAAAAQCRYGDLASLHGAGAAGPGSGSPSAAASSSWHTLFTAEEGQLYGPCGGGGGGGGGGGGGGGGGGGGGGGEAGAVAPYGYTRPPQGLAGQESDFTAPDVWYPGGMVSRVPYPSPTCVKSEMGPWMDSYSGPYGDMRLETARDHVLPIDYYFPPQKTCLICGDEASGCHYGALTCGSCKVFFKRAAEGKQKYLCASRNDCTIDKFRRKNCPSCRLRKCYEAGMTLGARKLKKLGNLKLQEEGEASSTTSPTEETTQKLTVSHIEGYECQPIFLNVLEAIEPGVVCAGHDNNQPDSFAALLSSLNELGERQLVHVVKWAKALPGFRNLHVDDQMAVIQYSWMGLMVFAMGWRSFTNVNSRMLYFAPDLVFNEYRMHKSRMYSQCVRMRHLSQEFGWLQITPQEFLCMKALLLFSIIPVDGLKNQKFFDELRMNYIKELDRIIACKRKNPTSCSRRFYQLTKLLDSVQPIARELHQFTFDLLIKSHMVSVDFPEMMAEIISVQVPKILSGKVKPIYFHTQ

human androgen receptor [2] = molecular target: T1, human androgen receptor; assay: androgenic activity (EC50 and intrinsic activity), transactivation bioassay in CHO-AR-pMMTV-LUC cells (Table 4); assay type: cell-based; conditions: androgenic activity, read-out: ago EC50
Summary of the method: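 CHO cells stably expressing human AR with an MMTV-luciferase reporter; luciferase transactivation gives EC50. Intrinsic activity is scaled to the maximal response with 100 nM DHT set at 100%.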

human androgen receptor [3] = molecular target: T1, human androgen receptor; assay: androgenic activity (EC50, potency, efficacy), transactivation bioassay in CHO-AR-pMMTV-LUC cells in the presence of 0.1 μmol/l onapristone (Table 5); assay type: cell-based; conditions: for Emax: read-out: ago efficacy; for ago potency: potency expressed as percentage of DHT activity, in the presence of 0.1 μmol/l onapristone
Protocol: The androgenic activity (EC50, potency, and efficacy) of the compounds in Table 5 was determined in an in vitro bioassay of Chinese hamster ovary (CHO) cells stably transfected with the human androgen receptor expression plasmid and a reporter plasmid in which the MMTV promoter is linked to the luciferase reporter gene. The cell line CHO-AR-pMMTV-LUC 1G12-A5-CA is described in Schoonen et al. (J. Steroid Biochem. Moles. Biol. […]; 74: 213-222). The androgen receptor activity of compounds was determined in the presence of 0.1 μmol/l onapristone. The maximal efficacy in the presence of 100 nmol/l DHT was set as 100%. The potencies are expressed as percentage of DHT activity.

[4] = maximal intrinsic activity, activity in the presence of 100 nM DHT set at 1.00, CHO-AR-pMMTV-LUC cells, 0.1 μmol/l onapristone

SMILES: COc1ccc2c(Sc3ccccc3[N+](=O)[O-])cn(CC3CCCCC3)c2c1 [Compound 89]
- EC50 (human androgen receptor [1]): < 5 nM
- EC50 (human androgen receptor [2]): 5 to 100 nM

SMILES: O=[N+]([O-])c1ccccc1Sc1cn(Cc2ccccc2)c2ccccc12 [Compound 90]
- EC50 (human androgen receptor [1]): > 10000 nM
- EC50 (human androgen receptor [2]): < 1000 nM

SMILES: COc1ccc2c(c1)c(Sc1ccccc1[N+](=O)[O-])cn2Cc1ccccc1 [Compound 91]
- EC50 (human androgen receptor [1]): 1000 to 10000 nM
- EC50 (human androgen receptor [2]): > 10000 nM

SMILES: COc1ccc2c(Sc3ccccc3[N+](=O)[O-])cn(Cc3ccccc3)c2c1 [Compound 92]
- EC50 (human androgen receptor [1]): > 10000 nM
- EC50 (human androgen receptor [2]): < 5 nM

SMILES: COc1ccc2c(Sc3ccccc3[N+](=O)[O-])cn(Cc3ccncc3)c2c1 [Compound 93, 6-Methoxy-3-(2-nitro-phenylsulfanyl)-1-pyridin-4-ylmethyl-1H-indole]
- Emax (human androgen receptor [3]; [4]): 50 to 80%
- ago potency (human androgen receptor [3]; CHO-AR-pMMTV-LUC cells): ± (between 0.1% and 1%)

SMILES: COc1ccc2c(Sc3ccccc3[N+](=O)[O-])cn(Cc3cc(F)c(F)c(F)c3)c2c1 [Compound 94, 6-Methoxy-3-(2-nitro-phenylsulfanyl)-1-(3,4,5-trifluoro-benzyl)-1H-indole]
- Emax (human androgen receptor [3]; [4]): > 80%
- ago potency (human androgen receptor [3]; CHO-AR-pMMTV-LUC cells): + (between 1% and 5%)

SMILES: COc1ccc2c(Sc3ccccc3[N+](=O)[O-])cn(Cc3cc(F)cc(F)c3F)c2c1 [Compound 95, 6-Methoxy-3-(2-nitro-phenylsulfanyl)-1-(2,3,5-trifluoro-benzyl)-1H-indole]
- Emax (human androgen receptor [3]; [4]): > 80%
- ago potency (human androgen receptor [3]; CHO-AR-pMMTV-LUC cells): ± (between 0.1% and 1%)

SMILES: COc1ccc2c(Sc3ccccc3[N+](=O)[O-])cn(Cc3ccc(Cl)nc3)c2c1 [Compound 96, 1-(6-Chloro-pyridin-3-ylmethyl)-6-methoxy-3-(2-nitro-phenylsulfanyl)-1H-indole]
- Emax (human androgen receptor [3]; [4]): 20 to 50%
- ago potency (human androgen receptor [3]; CHO-AR-pMMTV-LUC cells): ± (between 0.1% and 1%)

SMILES: O=C(CF)Nc1ccc2c(Sc3ccccc3[N+](=O)[O-])cn(Cc3cc(F)cc(F)c3)c2c1 [Compound 97, N-[1-(3,5-Difluoro-benzyl)-3-(2-nitro-phenylsulfanyl)-1H-indol-6-yl]-2-fluoro-acetamide]
- ago potency (human androgen receptor [3]; CHO-AR-pMMTV-LUC cells): + (between 1% and 5%)
- Emax (human androgen receptor [3]): > 80%

SMILES: O=C(Nc1ccc2c(Sc3ccccc3[N+](=O)[O-])cn(Cc3cc(F)cc(F)c3)c2c1)C(F)F [Compound 98, N-[1-(3,5-Difluoro-benzyl)-3-(2-nitro-phenylsulfanyl)-1H-indol-6-yl]-2,2-difluoro-acetamide]
- Emax (human androgen receptor [3]; [4]): 50 to 80%
- ago potency (human androgen receptor [3]; CHO-AR-pMMTV-LUC cells): ++ (>5%)

SMILES: CCC(=O)Nc1ccc2c(Sc3ccccc3[N+](=O)[O-])cn(Cc3cc(F)cc(F)c3)c2c1 [Compound 99, N-[1-(3,5-Difluoro-benzyl)-3-(2-nitro-phenylsulfanyl)-1H-indol-6-yl]-propionamide]
- Emax (human androgen receptor [3]; [4]): 50 to 80%
- ago potency (human androgen receptor [3]; CHO-AR-pMMTV-LUC cells): ± (between 0.1% and 1%)

SMILES: O=C(CF)Nc1ccc2c(Sc3ccccc3[N+](=O)[O-])cn(Cc3ccccn3)c2c1 [Compound 100, 2-Fluoro-N-[3-(2-nitro-phenylsulfanyl)-1-pyridin-2-ylmethyl-1H-indol-6-yl]-acetamide]
- ago potency (human androgen receptor [3]; CHO-AR-pMMTV-LUC cells): + (between 1% and 5%)
- Emax (human androgen receptor [3]): > 80%

SMILES: CC(=O)Nc1ccc2c(Sc3ccccc3[N+](=O)[O-])cn(Cc3ccccn3)c2c1 [Compound 101, N-[3-(2-Nitro-phenylsulfanyl]-1-pyridin-2-ylmethyl-1H-indol-6-yl]-acetamide]
- Emax (human androgen receptor [3]; [4]): 50 to 80%
- ago potency (human androgen receptor [3]; CHO-AR-pMMTV-LUC cells): + (between 1% and 5%)

SMILES: CCC(=O)Nc1ccc2c(Sc3ccccc3[N+](=O)[O-])cn(Cc3ccccn3)c2c1 [Compound 102, N-[3-(2-Nitro-phenylsulfanyl)-1-pyridin-2-ylmethyl-1H-indol-6-yl]-propionamide]
- Emax (human androgen receptor [3]; [4]): 50 to 80%
- ago potency (human androgen receptor [3]; CHO-AR-pMMTV-LUC cells): + (between 1% and 5%)

SMILES: CC(=O)Nc1ccc2c(Sc3ccccc3[N+](=O)[O-])cn(Cc3cccnc3)c2c1 [Compound 103, N-[3-(2-Nitro-phenylsulfanyl)-1-pyridin-3-ylmethyl-1H-indol-6-yl]-acetamide]
- Emax (human androgen receptor [3]; [4]): 50 to 80%
- ago potency (human androgen receptor [3]; CHO-AR-pMMTV-LUC cells): + (between 1% and 5%)

SMILES: O=C(CF)Nc1ccc2c(Sc3ccccc3[N+](=O)[O-])cn(Cc3cccnc3)c2c1 [Compound 104, 2-Fluoro-N-[3-(2-nitro-phenylsulfanyl)-1-pyridin-3-ylmethyl-1H-indol-6-yl]-acetamide]
- ago potency (human androgen receptor [3]; CHO-AR-pMMTV-LUC cells): + (between 1% and 5%)
- Emax (human androgen receptor [3]): < 20%

SMILES: CCC(=O)Nc1ccc2c(Sc3ccccc3[N+](=O)[O-])cn(Cc3cccnc3)c2c1 [Compound 105, N-[3-(2-Nitro-phenylsulfany)-1-pyridin-3-ylmethyl-1H-indol-6-yl]-propionamide]
- Emax (human androgen receptor [3]; [4]): 20 to 50%
- ago potency (human androgen receptor [3]; CHO-AR-pMMTV-LUC cells): + (between 1% and 5%)

SMILES: CS(=O)(=O)Nc1ccc2c(Sc3ccccc3[N+](=O)[O-])cn(Cc3cc(F)cc(F)c3)c2c1 [Compound 106, N-[1-(3,5-Difluoro-benzyl)-3-(2-nitro-phenylsulfanyl)-1H-indol-6-yl]-methanesulfonamide]
- Emax (human androgen receptor [3]; [4]): > 80%
- ago potency (human androgen receptor [3]; CHO-AR-pMMTV-LUC cells): + (between 1% and 5%)

SMILES: O=[N+]([O-])c1ccccc1Sc1cn(Cc2cc(F)cc(F)c2)c2cc(NS(=O)(=O)c3ccsc3)ccc12 [Compound 107, Thiophene-3-sulfonic acid [1-(3,5-difluoro-benzyl)-3-(2-nitro-phenylsulfanyl)-1H-indol-6-yl]-amide]
- Emax (human androgen receptor [3]; [4]): > 80%
- ago potency (human androgen receptor [3]; CHO-AR-pMMTV-LUC cells): + (between 1% and 5%)

SMILES: Cn1cnc(S(=O)(=O)Nc2ccc3c(Sc4ccccc4[N+](=O)[O-])cn(Cc4cc(F)cc(F)c4)c3c2)c1 [Compound 108, 1-Methyl-1H-imidazole-4-sulfonic acid [1-(3,5-difluoro-benzyl)-3-(2-nitro-phenylsulfanyl)-1H-indol-6-yl]-amide]
- Emax (human androgen receptor [3]; [4]): > 80%
- ago potency (human androgen receptor [3]; CHO-AR-pMMTV-LUC cells): + (between 1% and 5%)

SMILES: CN(C)C(=O)c1ccc2c(Sc3ccccc3[N+](=O)[O-])cn(Cc3ccccn3)c2c1 [Compound 109, 3-(2-Nitro-phenylsulfanyl)-1-pyridin-2-ylmethyl-1H-indole-6-carboxylic acid dimethylamide]
- Emax (human androgen receptor [3]; [4]): > 80%
- ago potency (human androgen receptor [3]; CHO-AR-pMMTV-LUC cells): + (between 1% and 5%)

SMILES: CNC(=O)c1ccc2c(Sc3ccccc3[N+](=O)[O-])cn(Cc3ccccn3)c2c1 [Compound 110, 3-(2-Nitro-phenylsulfanyl)-1-pyridin-2-ylmethyl-1H-indole-6-carboxylic acid methylamide]
- Emax (human androgen receptor [3]; [4]): 50 to 80%
- ago potency (human androgen receptor [3]; CHO-AR-pMMTV-LUC cells): + (between 1% and 5%)

SMILES: NC(=O)c1ccc2c(Sc3ccccc3[N+](=O)[O-])cn(Cc3ccccn3)c2c1 [Compound 111, 3-(2-Nitro-phenylsulfanyl)-1-pyridin-2-ylmethyl-1H-indole-6-carboxylic acid amide]
- Emax (human androgen receptor [3]; [4]): 20 to 50%
- ago potency (human androgen receptor [3]; CHO-AR-pMMTV-LUC cells): ± (between 0.1% and 1%)

SMILES: CNC(=O)c1ccc2c(Sc3ccccc3[N+](=O)[O-])cn(Cc3cccnc3)c2c1 [Compound 112, 3-(2-Nitro-phenylsulfanyl)-1-pyridin-3-ylmethyl-1H-indole-6-carboxylic acid methylamide]
- Emax (human androgen receptor [3]; [4]): 20 to 50%
- ago potency (human androgen receptor [3]; CHO-AR-pMMTV-LUC cells): + (between 1% and 5%)

SMILES: CCNC(=O)c1ccc2c(Sc3ccccc3[N+](=O)[O-])cn(Cc3cccnc3)c2c1 [Compound 113, 3-(2-Nitro-phenylsulfanyl)-1-pyridin-3-ylmethyl-1H-indole-6-carboxylic acid ethylamide]
- Emax (human androgen receptor [3]; [4]): 50 to 80%
- ago potency (human androgen receptor [3]; CHO-AR-pMMTV-LUC cells): + (between 1% and 5%)

SMILES: O=C(NC1CC1)c1ccc2c(Sc3ccccc3[N+](=O)[O-])cn(Cc3cccnc3)c2c1 [Compound 114, 3-(2-Nitro-phenylsulfanyl)-1-pyridin-3-ylmethyl-1H-indole-6-carboxylic acid cyclopropylamide]
- Emax (human androgen receptor [3]; [4]): > 80%
- ago potency (human androgen receptor [3]; CHO-AR-pMMTV-LUC cells): + (between 1% and 5%)

SMILES: COc1ccc2c(Sc3ccccc3[N+](=O)[O-])cn(Cc3cncnc3)c2c1 [Compound 115, 6-Methoxy-3-(2-nitro-phenylsulfanyl)-1-pyrimidin-5-ylmethyl-1H-indole]
- Emax (human androgen receptor [3]; [4]): 50 to 80%
- ago potency (human androgen receptor [3]; CHO-AR-pMMTV-LUC cells): ++ (>5%)
